Experimental findings from PubChem BioAssay AID330 (DTP/NCI, 2004) are described below.

Several values for one entry are separate records, joined by “and”; a condition that tells them apart may be missing. Identical values can stand only once. Inconclusive results and toxic doses are left out.

This assay concerns P388 leukemia ip, CD2F1 mice, survival T/C. As to the kind of experiment: NCI In Vivo Anticancer Drug Screen. Data for tumor model P388 Leukemia (intraperitoneal) in CD2F1 (CDF1) mice. Particulars: endpoint: median survival time, higher = longer survival. Put shortly:
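Mice carrying the transplanted tumor received test compound or vehicle. Survival was recorded in each group, and the value is the treated-group measurement divided by that of the vehicle-treated control group.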

Where [1] appears, read: dose: 50.0 mg/kg/injection, schedule: Q01DX005 (ip), vehicle: Klucel (hydroxypropylcellulose) (HPC).
[2] abbreviates: dose: 100.0 mg/kg/injection, schedule: Q01DX005 (ip), vehicle: Klucel (hydroxypropylcellulose) (HPC).
[3] abbreviates: dose: 200.0 mg/kg/injection, schedule: Q01DX005 (ip), vehicle: Klucel (hydroxypropylcellulose) (HPC).
[4] abbreviates: dose: 100.0 mg/kg/injection, schedule: Q01DX001 (ip), vehicle: saline with Tween-80.
The mark [5] stands for this setting: dose: 200.0 mg/kg/injection, schedule: Q01DX001 (ip), vehicle: saline with Tween-80.
Setting [6] is: dose: 50.0 mg/kg/injection, schedule: Q01DX005 (ip), vehicle: saline with Tween-80.
[7] abbreviates: dose: 100.0 mg/kg/injection, schedule: Q01DX005 (ip), vehicle: saline with Tween-80.
Where [8] appears, read: dose: 200.0 mg/kg/injection, schedule: Q01DX005 (ip), vehicle: saline with Tween-80.
Where [9] appears, read: dose: 60.0 mg/kg/injection, schedule: Q01DX005 (ip), vehicle: saline with Tween-80.
Setting [10] is: dose: 120.0 mg/kg/injection, schedule: Q01DX005 (ip), vehicle: saline with Tween-80.
The mark [11] stands for this setting: dose: 240.0 mg/kg/injection, schedule: Q01DX005 (ip), vehicle: saline with Tween-80.
Where [12] appears, read: dose: 50.0 mg/kg/injection, schedule: Q01DX009 (ip), vehicle: saline with Tween-80.
[13] abbreviates: dose: 100.0 mg/kg/injection, schedule: Q01DX009 (ip), vehicle: saline with Tween-80.
Setting [14] is: dose: 200.0 mg/kg/injection, schedule: Q01DX009 (ip), vehicle: saline with Tween-80.
Setting [15] is: dose: 100.0 mg/kg/injection, schedule: Q04DX002 (ip), vehicle: Klucel (hydroxypropylcellulose) (HPC).
The mark [16] stands for this setting: dose: 200.0 mg/kg/injection, schedule: Q04DX002 (ip), vehicle: Klucel (hydroxypropylcellulose) (HPC).
Setting [17] is: dose: 400.0 mg/kg/injection, schedule: Q04DX002 (ip), vehicle: Klucel (hydroxypropylcellulose) (HPC).
[18] abbreviates: dose: 60.0 mg/kg/injection, schedule: Q01DX005 (ip), vehicle: Klucel (hydroxypropylcellulose) (HPC).
Setting [19] is: dose: 120.0 mg/kg/injection, schedule: Q01DX005 (ip), vehicle: Klucel (hydroxypropylcellulose) (HPC).

In the case of `CCOC(=O)c1cnc(SC)n(-c2c(Cl)cccc2Cl)c1=O`, the T/C under setting [1] is 98 % of control, the T/C under setting [2] was 97 % of control and the T/C under setting [3] was 99 % of control.
Take `CS(=O)(=O)NC(=O)NC(=S)c1ccco1`: the T/C under setting [4] was 105 % of control; the T/C under setting [5] was 102 % of control; the T/C (dose: 400.0 mg/kg/injection, schedule: Q01DX001 (ip), vehicle: saline with Tween-80) is 97 % of control.
On to `C[As](C)SCC1OC(n2cnc3c(N)ncnc32)C2OC(C)(C)OC12` (stereo not given), for which the T/C runs as follows: (dose: 12.5 mg/kg/injection, schedule: Q01DX009 (ip), vehicle: distilled water + Tween-80) 101 % of control; (dose: 25.0 mg/kg/injection, schedule: Q01DX009 (ip), vehicle: distilled water + Tween-80) 100 % of control; (dose: 50.0 mg/kg/injection, schedule: Q01DX009 (ip), vehicle: distilled water + Tween-80) 110 % of control; (dose: 100.0 mg/kg/injection, schedule: Q01DX009 (ip), vehicle: distilled water + Tween-80) 110 % of control; (dose: 200.0 mg/kg/injection, schedule: Q01DX009 (ip), vehicle: distilled water + Tween-80) 101 % of control.
On to `Cc1ccc(C2c3c(c4ccccc4n3C(=O)c3ccccc3)C(=O)NN2C(=O)c2ccccc2)cc1` (stereo not given), for which the T/C under setting [1] was 97 % of control, the T/C under setting [2] is 90 % of control and the T/C under setting [3] is 95 % of control.
Consider `CC(C)CN1CC(=O)N2CCCC(C)N2C(=O)C1` (stereo not given), for which the T/C by setting is: under setting [6], 100 % of control; under setting [7], 99 % of control; under setting [8], 102 % of control.
As for `CN(CCN1C(=O)c2c(Cl)c(Cl)c(Cl)c(Cl)c2C1=O)c1ccccc1`, the T/C (dose: 50.0 mg/kg/injection, schedule: Q01DX001 (ip), vehicle: saline with Tween-80) is 95 % of control; the T/C under setting [4] is 91 % of control; the T/C under setting [5] was 88 % of control.
For `CN1C2=CC=CC=CC2=[N+](C)C1C(=C=[N-])C#N` (stereo not given), the T/C is 104 % of control (dose: 15.0 mg/kg/injection, schedule: Q01DX005 (ip), vehicle: saline with Tween-80); 107 % of control (dose: 30.0 mg/kg/injection, schedule: Q01DX005 (ip), vehicle: saline with Tween-80); 107 % of control and 115 % of control under setting [9].
Take `Nc1nnc2nc(CC(=O)/C=C/c3ccccc3)/c(=C/C(=O)/C=C/c3ccccc3)n12`: the T/C reads like this: (dose: 100.0 mg/kg/injection, schedule: Q04DX002 (ip), vehicle: saline with Tween-80) 104 % of control; (dose: 200.0 mg/kg/injection, schedule: Q04DX002 (ip), vehicle: saline with Tween-80) 107 % of control; (dose: 400.0 mg/kg/injection, schedule: Q04DX002 (ip), vehicle: saline with Tween-80) 100 % of control.
Turning to `CCCCN(CCNc1cc(OC)cc2cccnc12)C(C)CC` (stereo not given), the T/C is 112 % of control (dose: 12.5 mg/kg/injection, schedule: Q01DX005 (ip), vehicle: saline); 119 % of control (dose: 25.0 mg/kg/injection, schedule: Q01DX005 (ip), vehicle: saline); 98 % of control and 104 % of control (dose: 50.0 mg/kg/injection, schedule: Q01DX005 (ip), vehicle: saline).
For the compound `Nc1nc(N)c2cc([N+](=O)[O-])ccc2n1`, the T/C by setting is: under setting [9], 93 % of control; under setting [10], 94 % of control; under setting [11], 96 % of control.
Regarding `COc1ccc(Cc2cc3c(cc2OCC(=O)Nc2ncccn2)OCO3)cc1`, the T/C under setting [6] was 108 % of control, the T/C under setting [7] was 88 % of control and the T/C under setting [8] was 87 % of control.
As to `CC(C)c1cc(C(F)(F)F)nc(NNc2nc(C(C)C)cc(C(F)(F)F)n2)n1`, the T/C by setting is: under setting [12], 104 % of control; under setting [13], 104 % of control; under setting [14], 92 % of control.
For `CC(/C=C/c1ccccc1)=N\NC(=S)Nc1ccc(Cl)cc1`, the T/C runs as follows: under setting [15], 108 % of control; under setting [16], 107 % of control; under setting [17], 108 % of control.
Regarding `CCC12C=CCN3CC[C@@]4(c5cc([C@@]6(C(=O)OC)C[C@@H]7CN(CCc8c6[nH]c6ccccc86)C[C@](O)(CC)C7)c(OC)cc5N(C)[C@H]4[C@@](O)(C(=O)OC)[C@@H]1OC(=O)CCCCCCCCCCCN1C(=O)C=CC1=O)[C@H]32` (stereo not given in full), the T/C by setting is: (dose: 6.25 mg/kg/injection, schedule: Q01DX001 (ip), vehicle: other) 124 % of control; (dose: 12.5 mg/kg/injection, schedule: Q01DX001 (ip), vehicle: saline with Tween-80) 161 % of control; (dose: 25.0 mg/kg/injection, schedule: Q01DX001 (ip), vehicle: other) 200 % of control; (dose: 25.0 mg/kg/injection, schedule: Q01DX001 (ip), vehicle: saline with Tween-80) 238 % of control; (dose: 25.0 mg/kg/injection, schedule: Q01DX001 (ip), vehicle: saline) 202 % of control; (dose: 50.0 mg/kg/injection, schedule: Q01DX001 (ip), vehicle: saline) 215 % of control.
For `NC(=O)C1CCN(Cc2c[nH]c3ccccc23)CC1`, the T/C was 104 % of control (dose: 25.0 mg/kg/injection, schedule: Q01DX009 (ip), vehicle: saline with Tween-80); 100 % of control under setting [12]; 104 % of control under setting [13]; 102 % of control under setting [14].
Regarding `Nc1ccn(C2CC(N)C(CO)O2)c(=O)n1` (stereo not given), the T/C (dose: 12.5 mg/kg/injection, schedule: Q01DX005 (ip), vehicle: water) was 120 % of control; the T/C (dose: 25.0 mg/kg/injection, schedule: Q01DX005 (ip), vehicle: water) was 118 % of control and 123 % of control; the T/C (dose: 200.0 mg/kg/injection, schedule: Q01DX005 (ip), vehicle: water) was 153 % of control and 154 % of control.
On to `O=C(CCCCCCCCC(=O)NO)NO`, for which the T/C by setting is: under setting [9], 96 % of control; under setting [10], 100 % of control; under setting [11], 100 % of control.
Take `CCOC(=O)NSCC`: the T/C runs as follows: (dose: 6.25 mg/kg/injection, schedule: Q01DX009 (ip), vehicle: saline) 100 % of control; (dose: 12.5 mg/kg/injection, schedule: Q01DX009 (ip), vehicle: saline) 103 % of control; (dose: 25.0 mg/kg/injection, schedule: Q01DX009 (ip), vehicle: saline) 105 % of control.
On to `O=[N+]([O-])c1ccc(C(O)C(Br)[N+](=O)[O-])cc1` (stereo not given), for which the T/C reads like this: under setting [13], 104 % of control; under setting [14], 104 % of control; (dose: 400.0 mg/kg/injection, schedule: Q01DX009 (ip), vehicle: saline with Tween-80) 95 % of control.
For `[CH3][Ge]1([CH3])[CH2]C(c2ccccc2)=C(c2ccccc2)[CH2]1`, the T/C by setting is: under setting [18], 99 % of control; under setting [19], 94 % of control; (dose: 240.0 mg/kg/injection, schedule: Q01DX005 (ip), vehicle: Klucel (hydroxypropylcellulose) (HPC)) 90 % of control.
In the case of `O=C1SC/C(=N\N=c2/scc(-c3ccc(Br)cc3)n2-c2ccc(Br)cc2)N1Cc1ccccc1`, the T/C reads like this: under setting [15], 91 % of control; under setting [16], 92 % of control; under setting [17], 90 % of control.
For `OCC1OC(N(O)c2ccc(Oc3c(Cl)cc(Cl)cc3Cl)cc2)C(O)C(O)C1O` (stereo not given), the T/C is 100 % of control under setting [18] and 100 % of control under setting [19].
For `CC(C)CC(C(=O)O)N1C(=O)c2ccccc2C1=O` (stereo not given), the T/C by setting is: under setting [1], 98 % of control; under setting [2], 100 % of control; under setting [3], 95 % of control.
The corresponding values for `Cc1cnc(NCCCNc2ncc(C)c(-c3ccccc3O)n2)nc1-c1ccccc1O` are 88 % of control, 86 % of control and 92 % of control.
Take `N#C/C(=C\c1ccc(Cl)cc1)C(=O)N/N=C/c1ccc(Cl)cc1`: the T/C reads like this: (dose: 50.0 mg/kg/injection, schedule: Q01DX009 (ip), vehicle: saline) 97 % of control; (dose: 100.0 mg/kg/injection, schedule: Q01DX009 (ip), vehicle: saline) 97 % of control; (dose: 200.0 mg/kg/injection, schedule: Q01DX009 (ip), vehicle: saline) 101 % of control.
